pIC50: −log10 of the molar value. Where a SMILES comes first, the peptide text is derived from it. Bridges are numbered along the chain shown (N, C = ends). Where no end group is shown, it is not given here.
Molecular target: T1, P-selectin (Homo sapiens, UniProt P16109)
T1 construct: from tissue; host or cells: outdated human platelet packs from a blood bank
T1 sequence (P16109 42-830): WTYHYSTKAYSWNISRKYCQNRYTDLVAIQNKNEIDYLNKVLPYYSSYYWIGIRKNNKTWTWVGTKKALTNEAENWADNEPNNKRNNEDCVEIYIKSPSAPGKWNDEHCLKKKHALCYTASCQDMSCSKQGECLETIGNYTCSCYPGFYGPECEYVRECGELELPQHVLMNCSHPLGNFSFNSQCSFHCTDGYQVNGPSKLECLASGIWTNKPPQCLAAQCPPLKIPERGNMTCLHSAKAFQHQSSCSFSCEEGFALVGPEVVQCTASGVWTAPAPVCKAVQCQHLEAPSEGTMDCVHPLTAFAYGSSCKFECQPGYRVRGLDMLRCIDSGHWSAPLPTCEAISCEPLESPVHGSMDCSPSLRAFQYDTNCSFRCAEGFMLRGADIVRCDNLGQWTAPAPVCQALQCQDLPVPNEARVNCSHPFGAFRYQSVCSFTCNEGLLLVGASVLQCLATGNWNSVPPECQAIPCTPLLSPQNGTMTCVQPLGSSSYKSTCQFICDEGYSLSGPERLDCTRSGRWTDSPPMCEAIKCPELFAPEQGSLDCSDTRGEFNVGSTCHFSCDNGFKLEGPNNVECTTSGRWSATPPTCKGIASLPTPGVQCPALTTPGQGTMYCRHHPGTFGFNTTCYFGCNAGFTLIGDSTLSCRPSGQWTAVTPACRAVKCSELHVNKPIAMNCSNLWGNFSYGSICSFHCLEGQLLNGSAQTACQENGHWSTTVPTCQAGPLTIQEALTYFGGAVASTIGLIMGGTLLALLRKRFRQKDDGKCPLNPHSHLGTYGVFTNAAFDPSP
Assay: Inhibition of binding of human neutrophils to P-selectin (neutrophil adhesion to purified immobilized P-selectin, myeloperoxidase readout)
Type: cell-based
Details: P-selectin purified from human platelets, plated at 5 micrograms/mL, peptides tested 1.0 mM to 0.001 mM
Source text: Peptides can be screened for their ability to inhibit adhesion to cells, for example, neutrophil adhesion to purified P-selectin immobilized on plastic wells, using the assay described by Geng, et al., Nature 343, 757-760 1990). Human neutrophils are isolated from heparinized […] blood by density gradient centrifugation on Mono-Poly resolving media, Flow Laboratories. Neutrophil suspensions are greater than 98% pure and greater than 95% viable by trypan blue exclusion. For adhesion assays, neutrophils are suspended at a concentration of 2×10^6 cells/mL in Hanks' balanced salt solution containing 1.26 mM Ca^2+ and 0.81 mM Mg^2+ (HBSS, Gibco) with […] human serum albumin (HBSS/HSA). Adhesion assays are conducted in triplicate in 96-well microtiter plates, Corning, incubated at 4° C. overnight with 50 microliters of various protein solutions. P-selectin is isolated from human platelet lysates by immunoaffinity chromatography on antibody S12-Sepharose™ and ion-exchange chromatography on a Mono-Q™ column (FLPC, Pharmacia Fine Chemicals), as follows. Outdated human platelet packs (100 units) obtained from a blood bank and stored at 4° C. are pooled, adjusted to 5 mM EDTA at pH 7.5, centrifuged at 4,000 rpm for 30 minutes in 1 liter bottles, then washed three times with 1 liter of 0.1M NaCl, 20 mM Tris pH 7.5 (TBS), 5 mM EDTA, 5 mM benzamidine. The pellets are then resuspended in a minimum amount of wash buffer and made 1 mM in DIFP, then frozen in 50 mL screwtop tubes at -80° C. The frozen platelets are thawed and resuspended in 50 mL TBS, 5 mM benzamidine, 5 mM EDTA pH 7.5, […]. The suspension is frozen and thawed two times in a dry ice-acetone bath using a 600 mL lyophilizing flask, then homogenized in a glass/teflon mortar and pestle and made 1 mM in DIFP. The NaCl concentration is adjusted to 0.5M with a stock solution of 4M NaCl. After stirring the suspension at 4° C., it is centrifuged in polycarbonate tubes at 33,000 rpm for 60 minutes at 4° C. The supernatant (0.5M NaCl wash) is removed and saved; this supernatant contains the soluble form of P-selectin. Care is taken not to remove the top part of the pellet with the supernatant. The pellets are then homogenized in extraction buffer (TBS, 5 mM benzamidine, 5 mM EDTA, pH 7.5, 100 μM leupeptin, 2% Triton X-100). After centrifugation at 19,500 rpm for 25 minutes at 4° C., the supernatant is removed. The extraction procedure is repeated with the pellet and the supernatant is combined with the first supernatant. The combined extracts, which contain the membrane form of P-selectin, are adjusted to 0.5M NaCl. The soluble fraction (0.5M NaCl wash) and the membrane extract (also adjusted to 0.5M NaCl) are absorbed with separate pools of the monoclonal antibody S12 (directed to P-selectin) previously coupled to Affigel (Biorad) at 5 mg/mL for 2 hours at 4° C. After letting the resins settle, the supernatants are removed. The S12 Affigel containing bound GMP-140 is then loaded into a column and washed overnight at 4° C. with 400 mL of 0.5M NaCl, 20 mM Tris pH 7.5, 0.01% Lubrol PX. Bound P-selectin is eluted from the S12 Affigel with 100 mL of 80% ethylene glycol, 1 mM MES pH 6.0, 0.01% Lubrol PX. Peak fractions with absorbance at 280 nm are pooled. Eluates are dialyzed against TBS with 0.05% Lubrol, then applied to a Mono Q column (FPLC from Pharmacia). The concentrated protein is step eluted with 2M NaCl, 20 mM Tris pH 7.5 (plus 0.05% Lubrol PX for the membrane fraction). Peak fractions are dialyzed into TBS pH 7.5 (plus 0.05% Lubrol PX for the membrane fraction). P-selectin is plated at 5 micrograms/mL and the control proteins: human serum albumin (Alb), platelet glycoprotein IIb/IIIa (IIb), von Willsbrand factor (vWF), fibrinogen (FIB), thrombomodulin (TM), gelatin (GEL) or human serum (HS), are added at 50 micrograms/mL. […]

SRRKLALCY-NH2 [SEQ ID NO: 69, SRRKLALCY--NH2]
pIC50: 4.85

SKKKLALHY-NH2 [SEQ ID NO: 36, SKKKLALHY--NH2]
pIC50: 3.75

CC(C)C[C@@H]1NC(=O)[C@H](C)NC(=O)[C@H](CC(C)C)NC(=O)[C@H](CCCCN)NC(=O)[C@H](CCCCN)NC(=O)[C@H](CCCCN)NC(=O)[C@H](CO)NC(=O)[C@@H](N)CSSC[C@@H](C(=O)N[C@@H](Cc2ccc(O)cc2)C(N)=O)NC1=O [SEQ ID NO: 5] (H-CSKKKLALCY-NH2; disulfide 1-9)
pIC50: 4.11

Ac-SKRRLALCY-NH2 [SEQ ID NO: 57, Ac-SKRRLALCY--NH2]
pIC50: 5.10

SHKKLALCY-NH2 [SEQ ID NO: 18, SHKKLALCY--NH2]
pIC50: 3.44

NKKKLALCY-NH2 [SEQ ID NO: 15, NKKKLALCY--NH2]
pIC50: 4.72

SKKKIALCY-NH2 [SEQ ID NO: 26, SKKKIALCY--NH2]
pIC50: 4.21

SKKRLALCY-NH2 [SEQ ID NO: 50, SKKRLALCY--NH2]
pIC50: 5.40

Ac-SRARLALCY-NH2 [SEQ ID NO: 61, Ac-SRARLALCY--NH2]
pIC50: 4.33

SKKKLALVY-NH2 [SEQ ID NO: 40, SKKKLALVY--NH2]
pIC50: 3.63

Ac-LKKKLALCY-NH2 [SEQ ID NO: 12, Ac-LKKKLALCY--NH2]
pIC50: 4.59

SKKKLALCY-NH2 [SEQ ID NO: 31, SKKKLALCY--NH2]
pIC50: 4.72

Ac-SRKKLALCY-NH2 [SEQ ID NO: 63, Ac-SRKKLALCY--NH2]
pIC50: 4.77

Ac-SKKKLALLY-NH2 [SEQ ID NO: 37, Ac-SKKKLALLY--NH2]
pIC50: 4.06

HKKKLALCY-NH2 [SEQ ID NO: 10, HKKKLALCY--NH2]
pIC50: 4.26

Ac-SRKRLALCY-NH2 [SEQ ID NO: 65, Ac-SRKRLALCY--NH2]
pIC50: 4.74

Ac-NKKKLALCY-NH2 [SEQ ID NO: 14, Ac-NKKKLALCY--NH2]
pIC50: 4.28

SRKRLALCY-NH2 [SEQ ID NO: 66, SRKRLALCY--NH2]
pIC50: 5.52

Ac-FKKKLALCY-NH2 [SEQ ID NO: 7, Ac-FKKKLALCY--NH2]
pIC50: 4.13

CC(C)C[C@H](NC(=O)[C@H](C)NC(=O)[C@H](Cc1c[nH]cn1)NC(=O)[C@H](CCCCN)NC(=O)[C@H](CCCCN)NC(=O)[C@H](CCCCN)NC(=O)[C@H](CC(C)C)NC(=O)[C@@H](N)CS)C(=O)N[C@@H](CS)C(=O)N[C@@H](Cc1ccc(O)cc1)C(N)=O [SEQ ID NO: 1, Cystinyl-leucyl-lysyl-lysyl-lysyl-histidyl-alanyl-leucyl-cystinyl-tyrosine- amide] (H-CLKKKHALCY-NH2)
pIC50: 3.57

SKKKLAICY-NH2 [SEQ ID NO: 28, SKKKLAICY--NH2]
pIC50: 3.97

Ac-SKKKLALIY-NH2 [SEQ ID NO: 34, Ac-SKKKLALIY--NH2]
pIC50: 3.89

SKRRLALSY-NH2 [SEQ ID NO: 59, SKRRLALSY--NH2]
pIC50: 3.20

Ac-SKAKLALCY-NH2 [SEQ ID NO: 19, Ac-SKAKLALCY--NH2]
pIC50: 4.22

Ac-SKRKRALCY-NH2 [SEQ ID NO: 55, Ac-SKRKRALCY--NH2]
pIC50: 4.59

SKKKLALFY-NH2 [SEQ ID NO: 32, SKKKLALFY--NH2]
pIC50: 4.82

SKKKLQACY-NH2 [SEQ ID NO: 46, SKKKLQACY--NH2]
pIC50: 3.48

SKKKLALTY-NH2 [SEQ ID NO: 41, SKKKLALTY--NH2]
pIC50: 3.37

SKKKHALCY-NH2 [SEQ ID NO: 25, SKKKHALCY--NH2]
pIC50: 3.18

QKKKLALCY-NH2 [SEQ ID NO: 17, QKKKLALCY--NH2]
pIC50: 2.99

CC(C)C[C@H](NC(=O)[C@H](C)NC(=O)[C@H](CC(C)C)NC(=O)[C@H](CCCCN)NC(=O)[C@H](CCCCN)NC(=O)[C@H](CCCCN)NC(=O)[C@H](CO)NC(=O)[C@@H](N)CS)C(=O)N[C@@H](CS)C(=O)N[C@@H](Cc1ccc(O)cc1)C(N)=O [SEQ ID NO: 2, Cystinyl-serinyl-lysyl-lysyl-lysyl-leucyl-alanyl-leucyl-cystinyl-tyrosine-amide] (H-CSKKKLALCY-NH2)
pIC50: 4.32

Ac-SKLKLALCY-NH2 [SEQ ID NO: 51, Ac-SKLKLALCY--NH2]
pIC50: 4.92

Ac-SKKKTALCY-NH2 [SEQ ID NO: 47, Ac-SKKKTALCY--NH2]
pIC50: 4.09

Ac-SRRKLALCY-NH2 [SEQ ID NO: 68, Ac-SRRKLALCY--NH2]
pIC50: 4.57

SKKKLALCI-NH2 [SEQ ID NO: 30, SKKKLALCI--NH2]
pIC50: 3.06

LKKKHALCY-NH2 [SEQ ID NO: 11, LKKKHALCY--NH2]
pIC50: 3.75

SKKFLALCY-NH2 [SEQ ID NO: 22, SKKFLALCY--NH2]
pIC50: 3.26

SKFKLALCY-NH2 [SEQ ID NO: 20, SKFKLALCY--NH2]
pIC50: 4.43

SKKKAALCY-NH2 [SEQ ID NO: 24, SKKKAALCY--NH2]
pIC50: 3.63

CC(C)C[C@@H]1NC(=O)[C@H](C)NC(=O)[C@H](C)NC(=O)[C@H](CCCCN)NC(=O)[C@H](CC(C)C)NC(=O)[C@H](CCCCN)NC(=O)[C@H](Cc2c[nH]cn2)NC(=O)[C@@H](N)CSSC[C@@H](C(=O)N[C@@H](Cc2ccc(O)cc2)C(N)=O)NC1=O [SEQ ID NO: 6, Cyclo-(cystinyl-histidyl-lysyl-leucyl-lysyl-alanyl-alanyl-leucyl-cystinyl)- tyrosine-amide] (H-CHKLKAALCY-NH2; disulfide 1-9)
pIC50: 5.70

SKHKLALCY-NH2 [SEQ ID NO: 21, SKHKLALCY--NH2]
pIC50: 3.05

SRKRLALSY-NH2 [SEQ ID NO: 67, SRKRLALSY--NH2]
pIC50: 3.23

LKKKLALCY-NH2 [SEQ ID NO: 13, LKKKLALCY--NH2]
pIC50: 4.19

SRKKLALCY-NH2 [SEQ ID NO: 64, SRKKLALCY--NH2]
pIC50: 4.80

SKKKLAFCY-NH2 [SEQ ID NO: 27, SKKKLAFCY--NH2]
pIC50: 4.07

SKRKRALCY-NH2 [SEQ ID NO: 56, SKRKRALCY--NH2]
pIC50: 4.62

SSKKLALCY-NH2 [SEQ ID NO: 70, SSKKLALCY--NH2]
pIC50: 3.55

SKKKLALIV-NH2 [SEQ ID NO: 33, SKKKLALIV--NH2]
pIC50: 3.41

SKRKLALCY-NH2 [SEQ ID NO: 54, SKRKLALCY--NH2]
pIC50: 5.40

Reference: patent US5710123A, “Peptide inhibitors of selectin binding” (Centocor, Inc., priority 1995, dated 1998)
